Reference: patent publication US11571423B2, “Small molecule modulators of human sting” (Curadev Pharma Limited, priority 2017, dated 2023)
Counter-ions that a name gives are not always drawn. Like-named read-outs stand apart in the source and are kept apart here.

Columns and labels:
[1] = biological target: cynomolgus monkey STING protein (Macaca fascicularis, UniProt A0A2R3XZA6); test: Luciferase reporter assay, cynomolgus monkey STING overexpressed in HEK293T cells; assay type: cell-based
Description: 5×10^5 clonally selected HEK293T-hSTING-Luciferase cells were seeded in 384-well plates in growth medium and stimulated with novel compounds. After 20 hr of stimulation supernatant were removed and secretary reporter gene activity were measured using the Quanti-Luc detection system (Invivogen) on a Spectramax i3X luminometer.
In the tables below, EC50 value ranges for exemplary compounds are given.
Selected compounds were further tested against cynomolgus monkey STING protein overexpressed in HEK293T cells.

hSTING(R232) = hSTING(R232) (Homo sapiens, UniProt Q86WV6, H232R); test: Luciferase reporter assay in HEK293T-hSTING-Luciferase cells, R232 (wild type) human STING; assay type: cell-based; settings: 20 hr stimulation, read-out: R232 human activity (EC50 range)
Summary of the method: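 After 20 hr compound stimulation of 5×10^5 cells, secreted luciferase in the supernatant was measured by luminescence; values are fold-induction over baseline and EC50. The line is a clonal HEK293T stably carrying a STING plasmid (pUNO-1) and a luciferase reporter under five tandem ISREs fused to an ISG54 promoter.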

[2] = cynomolgus monkey STING overexpressed in HEK293T cells, read-out: Cynomolgus monkey STING activity (EC50 range)

Chain of cynomolgus monkey STING protein (A0A2R3XZA6 entry or part of it): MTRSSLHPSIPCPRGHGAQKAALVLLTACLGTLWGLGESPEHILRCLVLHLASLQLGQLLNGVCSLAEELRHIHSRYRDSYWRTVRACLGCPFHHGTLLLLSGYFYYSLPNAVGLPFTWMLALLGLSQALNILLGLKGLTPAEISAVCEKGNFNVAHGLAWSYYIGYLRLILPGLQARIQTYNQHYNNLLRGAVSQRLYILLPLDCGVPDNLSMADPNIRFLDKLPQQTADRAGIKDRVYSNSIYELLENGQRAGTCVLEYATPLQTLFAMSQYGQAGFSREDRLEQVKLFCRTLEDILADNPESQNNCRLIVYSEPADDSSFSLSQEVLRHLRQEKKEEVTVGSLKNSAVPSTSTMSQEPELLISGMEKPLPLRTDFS
Chain of hSTING(R232) (Q86WV6 whole entry H232R, the tested form may be a part): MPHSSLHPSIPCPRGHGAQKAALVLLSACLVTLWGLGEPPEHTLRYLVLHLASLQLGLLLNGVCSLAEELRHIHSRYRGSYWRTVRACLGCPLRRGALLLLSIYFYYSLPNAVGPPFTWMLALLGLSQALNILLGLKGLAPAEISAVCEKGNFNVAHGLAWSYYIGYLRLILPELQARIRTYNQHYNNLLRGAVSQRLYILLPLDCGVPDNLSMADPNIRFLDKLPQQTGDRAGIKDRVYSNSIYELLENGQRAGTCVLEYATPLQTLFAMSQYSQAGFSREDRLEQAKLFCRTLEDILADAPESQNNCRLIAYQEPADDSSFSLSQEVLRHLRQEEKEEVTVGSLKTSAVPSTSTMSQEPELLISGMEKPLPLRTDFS

Structure (SMILES) | EC50 [1, 2] | EC50 (hSTING(R232)) | EC50 [1]
COc1cc(F)c(CN2C(=O)N(C)[C@@H](C)c3ccc(C(=O)NCc4c(F)cc(F)cc4F)cc32)c(F)c1 [Example 79, (S)-1-(2,6-Difluoro-4-methoxybenzyl)-3,4-dimethyl-2-oxo-N-(2,4,6-trifluorobenzyl)-1,2,3,4-tetrahydroquinazoline-7-carboxamide] | < 1000 nM | < 1000 nM | 
C[C@H]1c2ccc(C(=O)NCc3c(F)cc(F)cc3F)cc2N(Cc2c(F)cc(OCCCOP(=O)(O)O)cc2F)C(=O)N1C [Example 82, (S)-3-(4-((3,4-dimethyl-2-oxo-7-((2,4,6-trifluorobenzyl)carbamoyl)-3,4-dihydroquinazolin-1(2H)-yl)methyl)-3,5-difluorophenoxy)propyl dihydrogen phosphate] | < 1000 nM | < 1000 nM | 
C[C@H]1c2ccc(C(=O)NCc3c(F)cc(F)cc3F)cc2N(Cc2c(F)cc(OCOP(=O)(O)O)cc2F)C(=O)N1C [Example 83, (S)-(4-((3,4-dimethyl-2-oxo-7-((2,4,6-trifluorobenzyl)carbamoyl)-3,4-dihydroquinazolin-1(2H)-yl)methyl)-3,5-difluorophenoxy)methyl dihydrogen phosphate] | < 1000 nM | < 1000 nM | 
C[C@H]1c2ccc(C(=O)NCc3c(F)cc(F)cc3F)cc2N(Cc2c(F)cc(OP(=O)(O)O)cc2F)C(=O)N1C [Example 84, (S)-4-((3,4-Dimethyl-2-oxo-7-((2,4,6-trifluorobenzyl)carbamoyl)-3,4-dihydroquinazolin-1(2H)-yl)methyl)-3,5-difluorophenyl dihydrogen phosphate] | < 1000 nM | < 1000 nM | 
C[C@H]1c2ccc(C(=O)NCc3c(F)cc(F)cc3F)cc2N(Cc2c(F)cc(OC(=O)N(C)CCC(=O)OCc3ccccc3)cc2F)C(=O)N1C [Example 86, (S)-Benzyl-3-(((4-((3,4-dimethyl-2-oxo-7-((2,4,6-trifluorobenzyl)carbamoyl)-3,4-dihydroquinazolin-1(2H)-yl)methyl)-3,5-difluorophenoxy)carbonyl)(methyl)amino)propanoate] |  | 1000 to 10000 nM | 1000 to 10000 nM
C[C@H]1c2ccc(C(=O)NCc3c(F)cc(F)cc3F)cc2N(Cc2c(F)ccc(OP(=O)(O)O)c2Cl)C(=O)N1C [Example 89, (S)-2-Chloro-3-((3,4-dimethyl-2-oxo-7-((2,4,6-trifluorobenzyl)carbamoyl)-3,4-dihydroquinazolin-1(2H)-yl)methyl-4-fluorophenyldihydrogen phosphate] | < 1000 nM | < 1000 nM | 
C[C@H]1c2ccc(C(=O)NCc3c(F)cc(F)cc3F)cc2N(Cc2c(F)ccc(OCOP(=O)(O)O)c2Cl)C(=O)N1C [Example 90, (S)-(2-Chloro-3-((3,4-dimethyl-2-oxo-7-((2,4,6-trifluorobenzyl)carbamoyl)-3,4-dihydroquinazolin-1(2H)-yl)methyl)-4-fluorophenoxy)methyl dihydrogen phosphate] | < 1000 nM | < 1000 nM | 
C[C@H]1c2ccc(C(=O)NCc3c(F)cc(F)cc3F)cc2N(Cc2c(F)cc(F)cc2OCCCOP(=O)(O)O)C(=O)N1C [Example 94, (S)-3-(2-((3,4-dimethyl-2-oxo-7-((2,4,6-trifluorobenzyl)carbamoyl)-3,4-dihydroquinazolin-1(2H)-yl)methyl)-3,5-difluorophenoxy)propyl dihydrogen phosphate] | > 10000 nM | < 1000 nM | 
C[C@H]1c2ccc(C(=O)NCc3c(F)cc(F)cc3F)cc2N(Cc2c(F)ccc(OCCOP(=O)(O)O)c2Cl)C(=O)N1C [Example 95, (S)-2-(2-chloro-3-((3,4-dimethyl-2-oxo-7-((2,4,6-trifluorobenzyl)carbamoyl)-3,4-dihydroquinazolin-1(2H)-yl)methyl)-4-fluorophenoxy)ethyl dihydrogen phosphate] | > 10000 nM | < 1000 nM | 
C[C@H]1c2ccc(C(=O)NCc3c(F)cc(F)cc3F)cc2N(Cc2c(F)ccc(OCCCOP(=O)(O)O)c2Cl)C(=O)N1C [Example 96, (S)-3-(2-chloro-3-((3,4-dimethyl-2-oxo-7-((2,4,6-trifluorobenzyl)carbamoyl)-3,4-dihydroquinazolin-1(2H)-yl)methyl)-4-fluorophenoxy)propyl dihydrogen phosphate] | > 10000 nM | < 1000 nM | 
C[C@H]1c2ccc(C(=O)NCc3c(F)cc(F)cc3F)cc2N(Cc2c(F)cc(OCCOP(=O)(O)O)cc2F)C(=O)N1C [Example 97, (S)-2-(4-((3,4-dimethyl-2-oxo-7-((2,4,6-trifluorobenzyl)carbamoyl)-3,4-dihydroquinazolin-1(2H)-yl)methyl)-3,5-difluorophenoxy)ethyl dihydrogen phosphate] | < 1000 nM | < 1000 nM | 
C[C@H]1c2ccc(C(=O)NCc3c(F)cc(OP(=O)(O)O)cc3F)cc2N(Cc2c(F)cccc2Cl)C(=O)N1C [Example 101, (S)-4-((1-(2-chloro-6-fluorobenzyl)-3,4-dimethyl-2-oxo-1,2,3,4-tetrahydroqinazoline-7-carboxamido)methyl)-3,5-difluorophenyl dihydrogen phosphate] | 1000 to 10000 nM | 1000 to 10000 nM | 
C[C@H]1c2ccc(C(=O)NCc3c(F)cc(F)cc3F)cc2N(Cc2c(F)ccc(OP(=O)(O)O)c2F)C(=O)N1C [Example 102, (S)-3-((3,4-dimethyl-2-oxo-7-((2,4,6-trifluorobenzyl)carbamoyl)-3,4-dihydroquinazolin-1(2H)-yl)methyl)-2,4-difluorophenyl dihydrogen phosphate] | < 1000 nM | < 1000 nM | 
C[C@H]1c2ccc(C(=O)NCc3c(F)cc(F)cc3F)cc2N(Cc2c(F)ccc(OCCOP(=O)(O)O)c2F)C(=O)N1C [Example 103, (S)-2-(3-((3,4-dimethyl-2-oxo-7-((2,4,6-trifluorobenzyl)carbamoyl)-3,4-dihydroquinazolin-1(2H)-yl)methyl)-2,4-difluorophenoxy)ethyl dihydrogen phosphate] | < 1000 nM | < 1000 nM | 
C[C@H]1c2ccc(C(=O)NCc3c(F)cc(F)cc3F)cc2N(Cc2c(F)cc(F)cc2OP(=O)(O)O)C(=O)N1C [Example 105, (S)-2-((3,4-dimethyl-2-oxo-7-((2,4,6-trifluorobenzyl)carbamoyl)-3,4-dihydroquinazolin-1(2H)-yl)methyl)-3,5-difluorophenyl dihydrogen phosphate] | < 1000 nM | < 1000 nM | 
CC(=O)Nc1ccc(COC(=O)Oc2ccc(F)c(CN3C(=O)N(C)[C@@H](C)c4ccc(C(=O)NCc5c(F)cc(F)cc5F)cc43)c2Cl)cc1 [Example 139, (S)-4-Acetamidobenzyl-(2-chloro-3-((3,4-dimethyl-2-oxo-7-((2,4,6-trifluorobenzyl)carbamoyl)-3,4-dihydroquinazolin-1(2H)-yl)methyl)-4-fluorophenyl) carbonate] | < 1000 nM | < 1000 nM | 
C=CCOc1cc(F)c(CN2C(=O)N(C)[C@@H](C)c3ccc(C(=O)NCc4c(F)cc(F)cc4F)cc32)c(F)c1 [Example 144] | < 1000 nM | < 1000 nM | 
C[C@H]1c2ccc(C(=O)NCc3c(F)cc(F)cc3F)cc2N(Cc2c(F)cc(OCC(O)CO)cc2F)C(=O)N1C (stereo partly drawn) [Example 145, (4S)-1-(4-(2,3-Dihydroxypropoxy)-2,6-difluorobenzyl)-3,4-dimethyl-2-oxo-N-(2,4,6-trifluorobenzyl)-1,2,3,4-tetrahydroquinazoline-7-carboxamide] | < 1000 nM | < 1000 nM | 
C[C@H]1c2ccc(C(=O)NCc3c(F)cc(F)cc3F)cc2N(Cc2c(F)cc(OC[C@H](O)CO)cc2F)C(=O)N1C [Example 146, (S)-1-(4-((R)-2,3-Dihydroxypropoxy)-2,6-difluorobenzyl)-3,4-dimethyl-2-oxo-N-(2,4,6-trifluorobenzyl)-1,2,3,4-tetrahydroquinazoline-7-carboxamide] | < 1000 nM | < 1000 nM | 
C[C@H]1c2ccc(C(=O)NCc3ccc(F)cc3OCCO)cc2N(Cc2c(F)cccc2Cl)C(=O)N1C [Example 284, (S)-1-(2-chloro-6-fluorobenzyl)-N-(4-fluoro-2-(2-hydroxyethoxy)benzyl)-3,4-dimethyl-2-oxo-1,2,3,4-tetrahydroquinazoline-7-carboxamide] |  | > 10000 nM | 
C[C@H]1c2ccc(C(=O)NCc3c(F)cc(F)cc3F)cc2N(Cc2c(Cl)c[nH]c(=O)c2F)C(=O)N1C [Example 287, (S)-1-((5-chloro-3-fluoro-2-oxo-1,2-dihydropyridin-4-yl)methyl)-3,4-dimethyl-2-oxo-N-(2,4,6-trifluorobenzyl)-1,2,3,4-tetrahydroquinazoline-7-carboxamide] |  | > 10000 nM | 
C[C@H]1c2ccc(C(=O)NCc3c(F)cc(F)cc3F)cc2N(Cc2c(Cl)cn(C)c(=O)c2F)C(=O)N1C [Example 288, (S)-1-((5-chloro-3-fluoro-1-methyl-2-oxo-1,2-dihydropyridin-4-yl)methyl)3,4-dimethyl-2-oxo-N-(2,4,6-trifluorobenzyl)-1,2,3,4-tetrahydroquinazoline-7-carboxamide] |  | 1000 to 10000 nM | 
C[C@H]1c2ccc(C(=O)NCc3c(F)cc(F)cc3F)cc2N(Cc2c(F)cc(OCCN)cc2F)C(=O)N1C [Example 292, (S)-1-(4-(2-aminoethoxy)-2,6-difluorobenzyl)-3,4-dimethyl-2-oxo-N-(2,4,6-trifluorobenzyl)-1,2,3,4-tetrahydroquinazoline-7-carboxamide hydrochloride] |  | < 1000 nM | 
C[C@H]1c2ccc(C(=O)NCc3c(F)cc(F)cc3F)cc2N(Cc2c(Cl)cn(CCO)c(=O)c2F)C(=O)N1C [Example 297, (S)-1-((5-chloro-3-fluoro-1-(2-hydroxyethyl)-2-oxo-1,2-dihydropyridin-4-yl)methyl)-3,4-dimethyl-2-oxo-N-(2,4,6-trifluorobenzyl)-1,2,3,4-tetrahydroquinazoline-7-carboxamide] |  | > 10000 nM | 
